We go through 3 molecules from patent US20250312504A1, “VOLATILE COMPOSITION […] FOR COMPOSITIONS COMPRISING A META-(C1-C4 ALKOXY) […]” (The Procter & Gamble Company, priority 2024, published 2025).

Each structure is given as a SMILES string.

Format in all cases: physicochemical
The nature of data set [1]: Electronic air freshener device test of DPM solutions (crystallization, weight loss). As to conditions: for crystal formation in air freshener device over time: 2, 5 and 10 wt. % solutions in DPM, plugged-in device, inspected daily for 4 weeks. The method, then:
Each solution (24 mL) was added to a P&G electronic air freshener device and plugged in to a standard 120v outlet. The devices were inspected and weighed daily for 4 weeks. The mass of each device was no longer recorded after the device stopped losing weight.
FIGS. 3-5 show the % weight loss of each solution in the P&G electronic air freshener device.

Data set [2] can be described thus: Headspace Method, air/solvent partition out of isopropyl myristate (IPM). To be noted: relative to ethylvanillin. On the procedure:
(§1) Perfume headspace data is collected for various materials according to the method provided below.
(§2) The partition coefficients are calculated by determining the amount of PRM in the headspace above a solution with a known concentration using a GC/FID-MS (Agilent 7890 and 5977A MSD) with a thermal desorption unit (Gerstel MPS2) and Dynamic Headspace Sampler (Gerstel DHS). This technique allows for automated headspace collections using the MultiPurposeSampler (MPS). The PRMs of interest are prepared at a known concentration in isopropyl myristate (IPM) or dipropylene glycol methyl ether (DPM), and 1 mL is pipetted in a 20 mL headspace vial. […]
(§3) Analytical standards can be obtained from Sigma Aldrich, St. Louis, MO and BioSynth, UK. A stock solution is prepared at approximately 0.5 g/L. The stock solution is then diluted to 4 to 5 concentrations ranging from approximately 0.05 g/L to 0.00005 g/L. These standard solutions are then analyzed by GC/MS. […]
(§4) Quantification of the headspace is performed by the PRM target m/z area response of the perfume component and the linear equation of the calibration plot.
(§5) Perfume headspace data is collected for various materials according to the Headspace Method provided above in the Test Methods section. The Air/Solvent partition coefficients are determined and indexed accordingly (e.g., where the partition coefficient for ethylvanillin is set at 1.00).

Data set [3] is described as follows: Headspace Method, air/solvent partition out of dipropylene glycol methyl ether (DPM). As to conditions: relative to ethylvanillin. The method, then:
as §1, §2, §3, §4, §5

Take `COc1cc(C=O)ccc1O` [Vanillin, reference compound]: the “crystal formation in air freshener device over time” value in data set [1] was “crystals were seen to form”.
Same read-out and setting: to `CCOc1cc(C=O)ccc1O` [Ethylvanillin, reference compound] belongs “crystals were seen to form”.
In the case of `CCOc1cccc(C=O)c1O` [ortho-Ethylvanillin, 2-hydroxy-3-ethoxybenzaldehyde], the “goes into the headspace more than ethylvanillin out of IPM” value in data set [2] is “about 6.2 ×”. Besides, the “goes into the headspace more than ethylvanillin out of DPM” value in data set [3] was “about 94 ×”. Also, the “weight loss rate of solution in air freshener device” value in data set [1] (2, 5 and 10 wt. % in DPM, most noticeable in the 5% and 10% solutions) was “steeper weight loss rate than the EV and V solutions”. Also, the “crystal formation in air freshener device over time” value in data set [1] is on record as “no crystals formed”.
